Source: ChEMBL document CHEMBL1201862, “PubChem BioAssay data set” (2004)
Structures can show the parent of a compound that is named as a salt.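 Cultured in 96-well plates, cells were exposed to test compound for 48 hours across five concentrations. At the GI50, growth is halved.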 Active and inactive are the calls of the source. Rule as the data show it: active = GI50 up to about 1.1 µM and inactive = higher.

What was measured:
Experiment in all cases: growth of human tumour cells (NCI), 48 h
A549 = tested on: A549
BT-549 = tested on: BT-549
CAKI-1 = tested on: CAKI-1
EKVX = tested on: EKVX
HCT-15 = tested on: HCT-15
HL-60 = tested on: HL-60
HT-29 = tested on: HT-29
IGROV-1 = tested on: IGROV-1
MDA-MB-231 = tested on: MDA-MB-231
NCI-H226 = tested on: NCI-H226
NCI-H460 = tested on: NCI-H460
OVCAR-4 = tested on: OVCAR-4
OVCAR-8 = tested on: OVCAR-8
RXF 393 = tested on: RXF 393
SK-MEL-28 = tested on: SK-MEL-28
SK-MEL-5 = tested on: SK-MEL-5
SN12C = tested on: SN12C
SR = tested on: SR
TK-10 = tested on: TK-10
UACC-62 = tested on: UACC-62

Structure (SMILES)	GI50 (A549)	GI50 (BT-549)	GI50 (CAKI-1)	GI50 (EKVX)	GI50 (HCT-15) [µM]	GI50 (HL-60)	GI50 (HT-29)	GI50 (IGROV-1)	GI50 (MDA-MB-231)	GI50 (NCI-H226)	GI50 (NCI-H460)	GI50 (OVCAR-4)	GI50 (OVCAR-8)	GI50 (RXF 393)	GI50 (SK-MEL-28)	GI50 (SK-MEL-5)	GI50 (SN12C)	GI50 (SR)	GI50 (TK-10)	GI50 (UACC-62)
C=C1C(=O)O[C@@H]2C[C@@H](C)[C@@H]3C=CC(=O)[C@@]3(C)[C@@H](O)[C@H]12 [HELENALIN]	2.9 µM (inactive)	1.04 µM (active)	0.377 µM (active)	3.13 µM (inactive)	2.33	0.525 µM (active)	1.71 µM (inactive)	2.2 µM (inactive)	3.95 µM (inactive)	1.63 µM (inactive)	1.73 µM (inactive)	2.77 µM (inactive)	1.48 µM (inactive)	0.466 µM (active)	1.76 µM (inactive)	1.3 µM (inactive)	1.36 µM (inactive)	0.594 µM (active)	4.05 µM (inactive)	1.39 µM (inactive)
C=CCN(CCNS(=O)(=O)c1ccc(C)cc1)S(=O)(=O)c1ccc(C)cc1	13.9 µM (inactive)	22.4 µM (inactive)	87.9 µM (inactive)	31.9 µM (inactive)	> 55.5	21.9 µM (inactive)	9.77 µM (inactive)	76.2 µM (inactive)	> 100 µM (inactive)	> 71.3 µM (inactive)	9.46 µM (inactive)	12.2 µM (inactive)	17.3 µM (inactive)	> 67.6 µM (inactive)	> 91.4 µM (inactive)	6.17 µM (inactive)	> 72.6 µM (inactive)	> 100 µM (inactive)	> 55.2 µM (inactive)	73.6 µM (inactive)
C[C@H](CCC(=O)O[C@@H]1CC[C@@]2(C)C(CC[C@H]3[C@@H]4CC[C@H]([C@H](C)CCc5nc6ccccc6[nH]5)[C@@]4(C)CC[C@@H]32)C1)[C@H]1CC[C@H]2[C@@H]3CCC4C[C@H](O)CC[C@]4(C)[C@H]3CC[C@]12C (stereo not given in full)	> 100 µM (inactive)	> 100 µM (inactive)	> 31.3 µM (inactive)	> 100 µM (inactive)	> 80.2	> 100 µM (inactive)	> 57.5 µM (inactive)	1.33 µM (inactive)	> 67.9 µM (inactive)	> 100 µM (inactive)	0.518 µM (active)	0.501 µM (active)	20.2 µM (inactive)	> 100 µM (inactive)	> 100 µM (inactive)	> 100 µM (inactive)	> 100 µM (inactive)	> 100 µM (inactive)	> 100 µM (inactive)	> 100 µM (inactive)
CC#CC(=O)SCCNC(=O)CC	> 10 µM (inactive)	3.81 µM (inactive)	> 10 µM (inactive)	> 10 µM (inactive)	> 10	> 5.57 µM (inactive)	> 10 µM (inactive)	> 10 µM (inactive)	> 10 µM (inactive)	> 10 µM (inactive)	> 10 µM (inactive)	4.48 µM (inactive)	> 10 µM (inactive)	4.53 µM (inactive)	> 8.71 µM (inactive)	8.39 µM (inactive)	> 10 µM (inactive)	> 4.79 µM (inactive)	> 10 µM (inactive)	> 9.44 µM (inactive)
O=C1c2cccc3cccc(c23)C(=O)N1CCCNCCCCNCCCNCCCN1C(=O)c2cccc3cccc(c23)C1=O [BISNAPHTHALIMIDOPROPYL SPERMIDINE TRIHYDROBROMIDE]	0.301 µM (active)	1.64 µM (inactive)	4.01 µM (inactive)	1.18 µM (inactive)	11.7	0.172 µM (active)	0.231 µM (active)	0.472 µM (active)	1.06 µM (active)	0.505 µM (active)	0.323 µM (active)	0.431 µM (active)	0.748 µM (active)	0.473 µM (active)	1.39 µM (inactive)	2.02 µM (inactive)	0.521 µM (active)	0.0787 µM (active)	2.55 µM (inactive)	0.458 µM (active)
Cc1cc(C)nc(NS(=O)(=O)c2ccc(NNc3c4ccccc4nc4c(C(=O)Nc5ccc(S(=O)(=O)Nc6ncccn6)cc5)cccc34)cc2)n1	38.7 µM (inactive)	36.8 µM (inactive)	36.3 µM (inactive)	19.5 µM (inactive)	32.7	25.7 µM (inactive)	27.9 µM (inactive)	35 µM (inactive)	31.3 µM (inactive)	22.5 µM (inactive)	25.6 µM (inactive)	33.7 µM (inactive)	26.2 µM (inactive)	35.3 µM (inactive)	29.5 µM (inactive)	21.2 µM (inactive)	20.4 µM (inactive)	8.41 µM (inactive)	50.9 µM (inactive)	25.2 µM (inactive)
